From ChEMBL document CHEMBL1201862, “PubChem BioAssay data set” (2004)
Activity calls are given as the source filed them.

Columns and labels:
[1] = biological target: T1, Corticotropin-releasing factor receptor 2/Corticotropin-releasing factor-binding protein (Homo sapiens, UniProt P24387+Q13324); test: activators of CRF receptor 2 with binding protein – uHTS hits, confirmation (AID 602473); format: functional; conditions: read-out: EC50_Mean
T1 sequence (Q13324 whole entry): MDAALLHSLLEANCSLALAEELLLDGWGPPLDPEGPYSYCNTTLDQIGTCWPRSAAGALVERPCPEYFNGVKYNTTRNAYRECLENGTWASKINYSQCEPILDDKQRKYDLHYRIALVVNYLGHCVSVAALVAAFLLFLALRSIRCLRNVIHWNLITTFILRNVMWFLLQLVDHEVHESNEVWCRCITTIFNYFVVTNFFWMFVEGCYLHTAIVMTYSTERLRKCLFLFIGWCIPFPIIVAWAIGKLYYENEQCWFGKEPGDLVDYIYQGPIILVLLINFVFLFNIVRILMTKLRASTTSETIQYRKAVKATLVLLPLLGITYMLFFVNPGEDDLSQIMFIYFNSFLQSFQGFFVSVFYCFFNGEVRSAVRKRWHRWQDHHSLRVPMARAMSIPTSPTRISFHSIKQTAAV
T1 sequence (P24387 whole entry): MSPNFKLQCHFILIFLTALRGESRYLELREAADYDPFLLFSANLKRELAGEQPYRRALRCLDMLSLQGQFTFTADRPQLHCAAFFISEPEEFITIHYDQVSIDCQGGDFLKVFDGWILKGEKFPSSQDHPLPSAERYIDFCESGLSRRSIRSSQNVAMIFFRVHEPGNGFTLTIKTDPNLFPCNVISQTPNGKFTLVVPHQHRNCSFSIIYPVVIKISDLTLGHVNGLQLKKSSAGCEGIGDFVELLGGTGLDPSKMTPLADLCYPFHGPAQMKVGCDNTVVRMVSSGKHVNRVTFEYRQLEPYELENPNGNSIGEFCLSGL

[2] = biological target: T1, Corticotropin-releasing factor receptor 2/Corticotropin-releasing factor-binding protein; test: Dose Response confirmation of uHTS hits for small molecule antagonists of the CRF-binding protein and CRF-R2 receptor complex.; format: functional; conditions: read-out: IC50_Mean
[3] = biological target: Cytochrome P450 2C9 (Homo sapiens, UniProt P11712)
[4] = biological target: Cytochrome P450 2C19 (Homo sapiens, UniProt P33261); test: Cytochrome panel assay with activity outcomes. Panel member name: p450-cyp2c19 Compounds with AC50 equal or less than 10 uM are considered active; format: functional
[5] = biological target: T2, Heat shock factor protein 1 (Mus musculus, UniProt P38532); test: inhibition of MG132-induced HSE-luciferase signal, confirmation, cell-based, NIH3T3, luminescence, dose retest (AID 2382); format: functional;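 further: NIH3T3 fibroblasts with HSF1-driven luciferase reporter stressed by proteasome inhibitor MG132; luminescence from HSF1-driven luciferase expression after 8 hours of MG132 stress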
T2 sequence (P38532 whole entry): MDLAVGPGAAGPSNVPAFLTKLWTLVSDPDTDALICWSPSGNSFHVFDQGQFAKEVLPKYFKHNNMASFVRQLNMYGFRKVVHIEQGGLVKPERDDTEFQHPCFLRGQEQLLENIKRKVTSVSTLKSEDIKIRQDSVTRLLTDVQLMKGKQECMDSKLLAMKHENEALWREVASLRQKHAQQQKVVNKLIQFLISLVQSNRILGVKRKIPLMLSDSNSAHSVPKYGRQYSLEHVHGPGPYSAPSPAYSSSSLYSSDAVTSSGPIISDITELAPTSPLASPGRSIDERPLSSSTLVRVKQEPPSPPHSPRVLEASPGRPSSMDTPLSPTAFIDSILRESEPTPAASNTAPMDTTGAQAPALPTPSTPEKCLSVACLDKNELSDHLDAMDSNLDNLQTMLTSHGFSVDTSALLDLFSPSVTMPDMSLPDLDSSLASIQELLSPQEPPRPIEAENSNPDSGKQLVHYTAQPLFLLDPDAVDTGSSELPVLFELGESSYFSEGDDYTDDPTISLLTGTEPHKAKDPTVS

[6] = biological target: Cytochrome P450 2D6 (Homo sapiens, UniProt P10635);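 further: CYP2D6 member of a cytochrome P450 panel assay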
[7] = Luminescence Cell-Based Dose Response HTS to Identify Inhibitors of 5'UTR Stem-Loop Driven Prion Protein mRNA Translation in H4 Neuroglioblastoma Cells. [Related pubchem assays: 1827 (Project Summary), 1813 (Primary HTS)]; format: functional
[8] = inhibitors of SNCA 5'UTR-driven reporter translation, confirmation, H4 neuroglioma cells, luminescence (AID 1988); format: functional, cell-based
[9] = inhibitors of firefly luciferase expression or activity, dose response, H4 neuroglioma cells, luminescence (AID 1990); format: functional, cell-based

Chain of Cytochrome P450 2C19 (P33261 whole entry): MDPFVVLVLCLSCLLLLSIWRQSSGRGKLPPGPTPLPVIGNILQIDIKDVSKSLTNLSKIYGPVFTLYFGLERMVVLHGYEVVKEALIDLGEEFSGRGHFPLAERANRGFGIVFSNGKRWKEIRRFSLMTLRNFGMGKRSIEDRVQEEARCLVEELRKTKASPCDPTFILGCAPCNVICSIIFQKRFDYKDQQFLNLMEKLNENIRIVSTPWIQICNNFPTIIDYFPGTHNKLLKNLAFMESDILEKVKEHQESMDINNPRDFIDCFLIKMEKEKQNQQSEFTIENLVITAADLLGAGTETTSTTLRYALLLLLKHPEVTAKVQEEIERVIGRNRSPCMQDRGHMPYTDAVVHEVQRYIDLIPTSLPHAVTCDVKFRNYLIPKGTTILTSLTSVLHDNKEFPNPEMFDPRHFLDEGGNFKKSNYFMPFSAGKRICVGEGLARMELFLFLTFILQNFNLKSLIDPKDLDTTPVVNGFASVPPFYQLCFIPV
Chain of Cytochrome P450 2C9 (P11712 whole entry): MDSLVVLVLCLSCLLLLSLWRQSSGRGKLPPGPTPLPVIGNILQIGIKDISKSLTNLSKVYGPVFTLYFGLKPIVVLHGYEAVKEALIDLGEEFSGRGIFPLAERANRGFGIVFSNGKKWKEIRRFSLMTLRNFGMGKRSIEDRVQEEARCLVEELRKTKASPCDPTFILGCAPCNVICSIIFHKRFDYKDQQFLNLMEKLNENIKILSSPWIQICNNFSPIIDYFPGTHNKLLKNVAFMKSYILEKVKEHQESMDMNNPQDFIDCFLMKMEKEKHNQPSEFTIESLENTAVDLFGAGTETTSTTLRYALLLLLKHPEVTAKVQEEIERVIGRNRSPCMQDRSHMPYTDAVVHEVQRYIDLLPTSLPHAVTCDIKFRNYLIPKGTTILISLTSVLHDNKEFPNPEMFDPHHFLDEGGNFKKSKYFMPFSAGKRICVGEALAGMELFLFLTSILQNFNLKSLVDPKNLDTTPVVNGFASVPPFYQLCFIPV
Chain of Cytochrome P450 2D6 (P10635 whole entry): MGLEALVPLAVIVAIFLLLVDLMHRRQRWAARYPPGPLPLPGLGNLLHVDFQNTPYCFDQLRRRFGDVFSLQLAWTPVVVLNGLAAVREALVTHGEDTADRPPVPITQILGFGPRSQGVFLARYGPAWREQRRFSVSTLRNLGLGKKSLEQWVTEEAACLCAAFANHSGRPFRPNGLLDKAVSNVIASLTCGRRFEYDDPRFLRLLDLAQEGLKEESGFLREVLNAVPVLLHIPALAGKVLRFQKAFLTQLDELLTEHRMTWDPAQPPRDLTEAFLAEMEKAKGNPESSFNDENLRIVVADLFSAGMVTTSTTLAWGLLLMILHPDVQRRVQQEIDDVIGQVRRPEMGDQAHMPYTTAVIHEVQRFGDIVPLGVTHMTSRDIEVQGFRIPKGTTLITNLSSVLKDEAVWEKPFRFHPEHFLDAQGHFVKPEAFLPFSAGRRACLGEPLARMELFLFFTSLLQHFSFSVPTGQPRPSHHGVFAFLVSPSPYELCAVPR

SMILES | EC50 [1] | IC50 [2] | EC50 [5] | further results
CCCCc1nc2ccccc2c(NC(=O)CN(CC)CC)c1CCC | > 53 µM (inactive) | > 47.1 µM (inactive) |  | 
NS(=O)(=O)c1ccc(CCNC(=O)C2CCCN2C(=O)OCc2ccccc2)cc1 (configuration not stated) |  |  |  | AC50 [3]: 15.8 µM (inconclusive); AC50 [4]: inconclusive
COc1ccc(-c2nc(CNS(=O)(=O)c3ccc(OC)c(OC)c3)cs2)cc1 |  |  | > 195 µM (not active) | 
Cc1ccc(NC(=O)CCC(=O)NNC(=O)c2ccco2)cc1C |  |  |  | AC50 [3]: 12.6 µM (inconclusive); AC50 ([4]; read-out: AC50): 17.8 µM (inconclusive)
Cc1ccc(NC(=O)NCC(c2cccnc2)N2CCOCC2)cc1 (configuration not stated) |  |  | > 195 µM (not active) | 
CNCC/C=C\c1cccnc1 |  |  |  | AC50 [3]: 39.8 µM (inconclusive); AC50 ([4]; read-out: AC50): 20 µM (inconclusive); AC50 [6]: 15.8 µM (inconclusive)
O=C(OCc1cc(=O)n2ccsc2n1)C1(c2ccccc2)CC1 | > 53 µM (inactive) | > 47.1 µM (inactive) |  | 
COc1cccc(-c2cc(C(F)(F)F)nc(-n3cc(Cl)cn3)n2)c1 |  |  |  | EC50 [7]: > 120 µM (not active); EC50 [8]: > 120 µM (not active); EC50 [9]: > 120 µM (not active)
CCC(=O)Nc1ccc(NC(=O)Cc2ccccc2)cn1 |  |  | > 195 µM (not active) | 
CCOC(=O)c1c(CC(C)C)csc1N | > 53 µM (inactive) | > 47.1 µM (inactive) |  | 
O=C(c1ccc(F)cc1)N1CCCC(N2CCN(Cc3ccc4c(c3)OCO4)CC2)C1 (configuration not stated) |  |  | > 195 µM (not active) | 
CCN1C(c2ccccc2)C(C)C(=O)C(C)C1c1ccccc1 (configuration not stated) | > 53 µM (inactive) | > 47.1 µM (inactive) |  | 
CC(=O)Oc1ccc2cc(-c3cccnc3)c(=O)oc2c1 | > 53 µM (inactive) | > 47.1 µM (inactive) |  | 
COC(=O)CCCC1=CC2=C(c3ccccc3)C(=O)C(C)(OC(=O)C3CCCC3)C(=O)C2=CN1CCc1ccccn1 (configuration not stated) | > 53 µM (inactive) | > 47.1 µM (inactive) |  | 
COc1ccc(NC(=O)C2CCN(C(=O)Nc3ccc(C)cc3)CC2)cc1OC |  |  |  | EC50 [7]: > 120 µM (not active); EC50 [8]: > 120 µM (not active); EC50 [9]: > 120 µM (not active)
CCCCCCCCCSc1nnc(N)[nH]1 | > 53 µM (inactive) | > 47.1 µM (inactive) |  | 
CCOC(=O)c1ccc(NC(=O)NS(=O)(=O)c2ccc(C)cc2)cc1 |  |  | > 195 µM (not active) | 
O=C(C1CC(=O)N(c2ccc(Br)cc2)C1)N1CCCC1 (configuration not stated) | > 53 µM (inactive) | > 47.1 µM (inactive) |  | 
O=C(OCC(=O)N1CCN(C(=O)c2ccco2)CC1)c1sc2cc(F)ccc2c1Cl |  |  | > 195 µM (not active) | 
N#Cc1nc(-c2ccco2)oc1N1CCN(Cc2ccccc2)CC1 |  |  | > 195 µM (not active) | 
Fc1ccccc1CCNCc1cccc(Cl)c1Cl |  |  |  | AC50 [3]: 39.8 µM (inconclusive)
Cn1c(SCC(=O)NCc2ccccc2)nc2ccccc21 |  |  | > 195 µM (not active) | 
Nc1nc(OCc2ccccc2)c2[nH]cnc2n1 [6-O-BENZYLGUANINE] |  |  |  | AC50 [3]: 39.8 µM (inconclusive); AC50 [6]: 0.501 µM (inconclusive)
COc1cccc(N2CCN(S(=O)(=O)c3c(C)[nH]c(C)c3C(=O)N3CCCC3)CC2)c1 | > 53 µM (inactive) | > 47.1 µM (inactive) |  | 
